Consider 32 compounds from US11014929B2, “Pyrazolopyrimidine compounds and uses thereof” (Incyte Corporation, priority 2016, dated 2021).

The target in the assay is HPK1 (Homo sapiens (Human), UniProt Q92918). Briefly: HPK1 Kinase Binding Assay. The conditions noted are these: LanthaScreen tracer 222 binding, active HPK1, one hour incubation at 25° C. The protocol: A stock solution of 1 mM test compound was prepared in DMSO. The compound plate was prepared by 3-fold and 11-point serial dilutions. 0.1 μL of the compound in DMSO was transferred from the compound plate to the white 384 well polystyrene plates. The assay buffer contained 50 mM HEPES, pH 7.5, 0.01% Tween-20, 5 mM MgCl2, 0.01% BSA, and 5 mM DTT. 5 μl of 4 nM active HPK1 (SignalChem M23-11G) prepared in the buffer was added to the plate. The enzyme concentration given was based on the given stock concentration reported by the vender. 5 μl of 18 nM tracer 222 (ThermoFisher PV6121) and 4 nM LanthaScreen Eu-Anti GST antibody (ThermoFisher PV5595) were added. After one hour incubation at 25° C., the plates were read on a PHERAstar FS plate reader (BMG Labtech). Ki values were determined.
Sequence of HPK1 (Q92918 1-346): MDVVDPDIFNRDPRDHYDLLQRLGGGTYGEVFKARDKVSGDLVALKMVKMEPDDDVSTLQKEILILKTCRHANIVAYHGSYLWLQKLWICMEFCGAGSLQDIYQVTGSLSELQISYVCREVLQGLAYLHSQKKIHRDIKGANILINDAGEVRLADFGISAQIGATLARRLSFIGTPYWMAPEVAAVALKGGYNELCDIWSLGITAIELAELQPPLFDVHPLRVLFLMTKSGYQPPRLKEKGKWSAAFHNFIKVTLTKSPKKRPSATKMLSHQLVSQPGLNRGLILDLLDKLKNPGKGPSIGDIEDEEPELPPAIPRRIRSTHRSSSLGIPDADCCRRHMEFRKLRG
One may read the Ki as a dissociation constant, usually derived from enzyme kinetics or from competition with a known ligand. Higher therefore signals weaker binding. `CN(C)CC(=O)Nc1cc(F)c(-c2ncc3[nH]nc(-c4cnn(C)c4)c3n2)c(F)c1` [Example 83, N-(3,5-Difluoro-4-(3-(1-methyl-1H-pyrazol-4-yl)-1H-pyrazolo[4,3-d]pyrimidin-5-yl)phenyl)-2-(dimethylamino)acetamide] came in with a Ki of at most 100 nM.

On to `CNCc1cc(F)c(-c2ncc3[nH]nc(-c4cnn(C)c4)c3n2)c(F)c1` [Example 84, 1-(3,5-Difluoro-4-(3-(1-methyl-1H-pyrazol-4-yl)-1H-pyrazolo[4,3-d]pyrimidin-5-yl)phenyl)-N-methylmethanamine], for which the Ki was at most 100 nM.

On to `COc1ccncc1-c1ncc2[nH]nc(-c3ccc(N4CCN(C)CC4)cc3)c2n1` [Example 102, 5-(4-Methoxypyridin-3-yl)-3-(4-(4-methylpiperazin-1-yl)phenyl)-1H-pyrazolo[4,3-d]pyrimidine], for which the Ki was at most 100 nM.

`CNCc1cc(F)c(-c2ncc3[nH]nc(-c4ccc(N5CCN(S(C)(=O)=O)CC5)nc4)c3n2)c(F)c1` [Example 74, 1-(3,5-Difluoro-4-(3-(6-(4-(methylsulfonyl)piperazin-1-yl)pyridin-3-yl)-1H-pyrazolo[4,3-d]pyrimidin-5-yl)phenyl)-N-methylmethanamine]: the Ki was at most 100 nM.

On to `CNCc1cc(C)c(-c2ncc3[nH]nc(-c4cnn(-c5ccccc5C#N)c4)c3n2)c(F)c1` [Example 79, 2-(4-(5-(2-Fluoro-6-methyl-4-((methylamino)methyl)phenyl)-1H-pyrazolo[4,3-d]pyrimidin-3-yl)-1H-pyrazol-1-yl)benzonitrile], for which the Ki is at most 100 nM.

In turn, `Cc1c2c(cc(F)c1-c1ncc3[nH]nc(-c4ccc(N5CCN(C)CC5)nc4)c3n1)CCNC2` [Example 110, 6-Fluoro-8-methyl-7-(3-(6-(4-methylpiperazin-1-yl)pyridin-3-yl)-1H-pyrazolo[4,3-d]pyrimidin-5-yl)-1,2,3,4-tetrahydroisoquinoline] yielded an inhibition constant Ki of at most 100 nM.

Regarding `CNCc1cc(F)c(-c2ncc3[nH]nc(-c4ccc(N5CCO[C@@H](COC)C5)nc4)c3n2)c(C(F)(F)F)c1` [Example 126, (R)-1-(3-Fluoro-4-(3-(6-(2-(methoxymethyl)morpholino)pyridin-3-yl)-1H-pyrazolo[4,3-d]pyrimidin-5-yl)-5-(trifluoromethyl)phenyl)-N-methylmethanamine], the Ki is at most 100 nM.

`Cc1ccccc1-c1ncc2[nH]nc(-c3ccc(N4CCN(C)CC4)cc3)c2n1` [Example 2, 3-(4-(4-Methylpiperazin-1-yl)phenyl)-5-o-tolyl-1H-pyrazolo[4,3-d]pyrimidine]: the Ki was at most 100 nM.

In the case of `COc1cccc(F)c1-c1ncc2[nH]nc(-c3ccc(N4CCCCC4)cc3)c2n1` [Example 40, 5-(2-Fluoro-6-methoxyphenyl)-3-(4-(piperidin-1-yl)phenyl)-1H-pyrazolo[4,3-d]pyrimidine], the inhibitory constant (Ki) is at most 100 nM.

Regarding `COc1cccc(F)c1-c1ncc2[nH]nc(-c3ccc(C4(N5CCOCC5)CC4)cc3)c2n1` [Example 33, 4-(1-(4-(5-(2-Fluoro-6-methoxyphenyl)-1H-pyrazolo[4,3-d]pyrimidin-3-yl)phenyl)cyclopropyl)morpholine], the Ki was in the range of 100 to 500 nM.

`CNCc1cc(F)c(-c2ncc3[nH]nc(-c4ccc(C5CCNCC5)cc4)c3n2)c(F)c1` [Example 65, 1-(3,5-Difluoro-4-(3-(4-(piperidin-4-yl)phenyl)-1H-pyrazolo[4,3-d]pyrimidin-5-yl)phenyl)-N-methylmethanamine]: the Ki was at most 100 nM.

For `CCN(C)C(=O)N1CCN(c2ccc(-c3n[nH]c4cnc(-c5c(F)cc(CNC)cc5F)nc34)cn2)CC1` [Example 75, 4-(5-(5-(2,6-Difluoro-4-((methylamino)methyl)phenyl)-1H-pyrazolo[4,3-d]pyrimidin-3-yl)pyridin-2-yl)-N-ethyl-N-methylpiperazine-1-carboxamide], the Ki was at most 100 nM.

Compound `Cc1cncc(-c2ncc3[nH]nc(-c4ccc(N5CCN(C)CC5)cc4)c3n2)c1` [Example 6, 3-(4-(4-Methylpiperazin-1-yl)phenyl)-5-(5-methylpyridin-3-yl)-1H-pyrazolo[4,3-d]pyrimidine] displayed a Ki of at most 100 nM.

`Fc1cc2c(c(F)c1-c1ncc3[nH]nc(-c4ccc(OC(F)F)nc4)c3n1)CNCC2` [Example 97, 7-(3-(6-(Difluoromethoxy)pyridin-3-yl)-1H-pyrazolo[4,3-d]pyrimidin-5-yl)-6,8-difluoro-1,2,3,4-tetrahydroisoquinoline] returned a Ki of at most 100 nM.

`COc1cccc(F)c1-c1ncc2[nH]nc(-c3ccccc3C)c2n1` [Example 20, 5-(2-Fluoro-6-methoxyphenyl)-3-o-tolyl-1H-pyrazolo[4,3-d]pyrimidine] gave a Ki of 500 to 5000 nM.

The compound `COc1cccc(F)c1-c1ncc2[nH]nc(-c3ccc(F)cc3)c2n1` [Example 36, 5-(2-Fluoro-6-methoxyphenyl)-3-(4-fluorophenyl)-1H-pyrazolo[4,3-d]pyrimidine] registered an inhibition constant Ki of at most 100 nM.

In turn, `CNC(=O)c1ccc(-c2n[nH]c3cnc(-c4c(F)cccc4OC)nc23)cc1` [Example 38, 4-(5-(2-Fluoro-6-methoxyphenyl)-1H-pyrazolo[4,3-d]pyrimidin-3-yl)-N-methylbenzamide] came in with a Ki of at most 100 nM.

For `CNc1ncc(-c2n[nH]c3cnc(-c4c(F)cc5c(c4F)CNCC5)nc23)cn1` [Example 94, 5-(5-(6,8-Difluoro-1,2,3,4-tetrahydroisoquinolin-7-yl)-1H-pyrazolo[4,3-d]pyrimidin-3-yl)-N-methylpyrimidin-2-amine], the Ki is at most 100 nM.

Regarding `COc1cccc(F)c1-c1ncc2[nH]nc(-c3ccc(C(=O)N(C)C)cc3)c2n1` [Example 22, 4-(5-(2-Fluoro-6-methoxyphenyl)-1H-pyrazolo[4,3-d]pyrimidin-3-yl)-N,N-dimethylbenzamide], the inhibition constant (Ki) lay within 100 to 500 nM.

For the compound `CNCc1cc(F)c(-c2ncc3[nH]nc(-c4ccc(N5CCCC(C)(CO)C5)nc4)c3n2)c(F)c1` (centres unmarked) [Example 71, (1-(5-(5-(2,6-Difluoro-4-((methylamino)methyl)phenyl)-1H-pyrazolo[4,3-d]pyrimidin-3-yl)pyridin-2-yl)-3-methylpiperidin-3-yl)methanol], the Ki was at most 100 nM.

For `CNC1CCCc2c1ccc(F)c2-c1ncc2[nH]nc(-c3ccc(N4CCN(C)CC4)nc3)c2n1` (centres unmarked) [Example 120, 6-Fluoro-N-methyl-5-(3-(6-(4-methylpiperazin-1-yl)pyridin-3-yl)-1H-pyrazolo[4,3-d]pyrimidin-5-yl)-1,2,3,4-tetrahydronaphthalen-1-amine], the Ki was at most 100 nM.

`CN1CCN(c2ccc(-c3n[nH]c4cnc(-c5c(F)ccc6c5CCNC6)nc34)cc2)CC1` [Example 56, 6-Fluoro-5-(3-(4-(4-methylpiperazin-1-yl)phenyl)-1H-pyrazolo[4,3-d]pyrimidin-5-yl)-1,2,3,4-tetrahydroisoquinoline]: the Ki was at most 100 nM.

As to `COc1cccc(F)c1-c1ncc2[nH]nc(-c3ccc(C(=O)N4CCOCC4)cc3)c2n1` [Example 31, (4-(5-(2-Fluoro-6-methoxyphenyl)-1H-pyrazolo[4,3-d]pyrimidin-3-yl)phenyl)(morpholino)methanone], the inhibition constant Ki was at most 100 nM.

`COc1cccc(F)c1-c1ncc2[nH]nc(-c3ccc(CN4CCOCC4)cc3)c2n1` [Example 24, 4-(4-(5-(2-Fluoro-6-methoxyphenyl)-1H-pyrazolo[4,3-d]pyrimidin-3-yl)benzyl)morpholine] displayed a Ki of at most 100 nM.

With `CCN1CCN(c2ccc(-c3n[nH]c4cnc(-c5c(C)cc(C6CCCCN6)cc5F)nc34)cc2)CC1` (centres unmarked) [Example 125, 3-(4-(4-Ethylpiperazin-1-yl)phenyl)-5-(2-fluoro-6-methyl-4-(piperidin-2-yl)phenyl)-1H-pyrazolo[4,3-d]pyrimidine], the Ki was at most 100 nM.

As to `COc1cccc(F)c1-c1ncc2[nH]nc(-c3ccsc3)c2n1` [Example 21, 5-(2-Fluoro-6-methoxyphenyl)-3-(thiophen-3-yl)-1H-pyrazolo[4,3-d]pyrimidine], the Ki is at most 100 nM.

`COc1cccc(F)c1-c1ncc2[nH]nc(/C=C/c3ccc(N4CCN(C)CC4)cc3)c2n1` [Example 55, (E)-5-(2-Fluoro-6-methoxyphenyl)-3-(4-(4-methylpiperazin-1-yl)styryl)-1H-pyrazolo[4,3-d]pyrimidine] had a Ki of at most 100 nM.

Regarding `CNC1CCc2c1cc(F)c(-c1ncc3[nH]nc(-c4ccc(N5CCOCC5)nc4)c3n1)c2F` (centres unmarked) [Example 113, 4,6-Difluoro-N-methyl-5-(3-(6-morpholinopyridin-3-yl)-1H-pyrazolo[4,3-d]pyrimidin-5-yl)-2,3-dihydro-1H-inden-1-amine], the Ki is at most 100 nM.

Consider `CNC(=O)c1cccc(-c2ncc3[nH]nc(-c4ccc(N5CCN(C)CC5)cc4)c3n2)c1F` [Example 47, 2-Fluoro-N-methyl-3-(3-(4-(4-methylpiperazin-1-yl)phenyl)-1H-pyrazolo[4,3-d]pyrimidin-5-yl)benzamide], for which the inhibitory constant (Ki) lay in the range of 100 to 500 nM.

Regarding `COc1cccc(F)c1-c1ncc2[nH]nc(-c3ccncc3)c2n1` [Example 15, 5-(2-Fluoro-6-methoxyphenyl)-3-(pyridin-4-yl)-1H-pyrazolo[4,3-d]pyrimidine], the Ki is at most 100 nM.

`COc1cccc(F)c1-c1ncc2[nH]nc(-c3ccc(N4CCOCC4)cc3)c2n1` [Example 26, 4-(4-(5-(2-Fluoro-6-methoxyphenyl)-1H-pyrazolo[4,3-d]pyrimidin-3-yl)phenyl)morpholine] yielded a Ki of at most 100 nM.

Consider `O=S(=O)(c1ccc(-c2n[nH]c3cnc(-c4c(F)cc5c(c4F)CNCC5)nc23)cc1)N1CCC1` [Example 96, 7-(3-(4-(Azetidin-1-ylsulfonyl)phenyl)-1H-pyrazolo[4,3-d]pyrimidin-5-yl)-6,8-difluoro-1,2,3,4-tetrahydroisoquinoline], for which the Ki was at most 100 nM.
